According to ChEMBL document CHEMBL1135486, “Acylating agents as enzyme inhibitors and understanding their reactivity for drug design” (J Med Chem, 2002):

Assay: Second-order rate constant (M-1 s-1) for the alkaline hydrolysis in water at 30 degrees C
Settings: buffer

Structure (SMILES)	kOH [M⁻¹ s⁻¹]
O=C1CCCN1c1ccccc1	0.000013
CC(C)[C@@H]1C(=O)N(S(C)(=O)=O)[C@@H]2CCN(C(=O)/C=C/CN3CCCCC3)[C@H]21	0.07
O=C1CCCN1 [2-PYRROLIDONE]	1.2
C=CC[C@H]1C(=O)OC2CCN(C(=O)OCc3ccccc3)[C@@H]21 (some centres undefined)	0.252
O=C1c2ccccc2S(=O)(=O)N1Cc1ccccc1	4.06
CN1C(=O)CCC1=O	0.825
O=C1CCCO1 [BUTYROLACTONE]	1.31
CCC[C@H](NC(=O)N1C(=O)C(CC)(CC)C1Oc1ccc(C(=O)N2CCN(C)CC2)cc1)c1ccc2c(c1)OCO2 (some centres undefined)	0.027
CN1CCCC1=O [METHYLPYRROLIDONE]	3.07
CC(C)[C@@H]1C(=O)N(S(C)(=O)=O)[C@@H]2CCN(C(=O)C3CN(CC(C)(C)C)C3)[C@H]21	0.0601
CC(C)[C@@H]1C(=O)N(S(C)(=O)=O)[C@@H]2CCN(C(=O)c3coc(CN4CCCC4)n3)[C@H]21	0.08
CC(=O)N(C)C(C)=O	1.54
CCOC(C)=O [ETHYL ACETATE]	0.164
CC(=O)N(C)S(=O)(=O)Cc1ccccc1	1.3
